In PubChem BioAssay AID1963958 (Molecular Pharmacology Branch, DTP, NCI, 2024):

Tested on: MDA-MB-231 multicell spheroids, viability
Assay: Anticancer human tumor MDA-MB-231 cell line growth inhibition [PI3K];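 note: spheroids exposed to agents for seven days before reading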;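 for viability, T/C: percent of vehicle control luminescence with DMSO treated spheroids as 100%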
Conditions: for IC50: curve of first compound; for viability, T/C: stronger effect = lower value
Outline: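 Tumor cells grown as multi-cell spheroids with HUVEC endothelial cells and MSC fibroblast-like stroma were treated with targeted agents combined with inavolisib, alpelisib, duvelisib or copanlisib. Doses fell in half-log steps from near clinical Cmax, else from 10 microM. Viability was measured.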

[1] = second compound 0.00316 µM, first compound 0.0316 µM
[2] = second compound 0.00316 µM, first compound 0.1 µM
[3] = second compound 0.00316 µM, first compound 0.316 µM
[4] = second compound 0.00316 µM, first compound 1 µM
[5] = second compound 0.00316 µM, first compound 3.16 µM
[6] = second compound 0.00316 µM, first compound 10 µM
[7] = second compound 0.01 µM, first compound 0.0316 µM
[8] = second compound 0.01 µM, first compound 0.1 µM
[9] = second compound 0.01 µM, first compound 0.316 µM
[10] = second compound 0.01 µM, first compound 1 µM
[11] = second compound 0.01 µM, first compound 3.16 µM
[12] = second compound 0.01 µM, first compound 10 µM
[13] = second compound 0.0316 µM, first compound 0.0316 µM
[14] = second compound 0.0316 µM, first compound 0.1 µM
[15] = second compound 0.0316 µM, first compound 0.316 µM
[16] = second compound 0.0316 µM, first compound 1 µM
[17] = second compound 0.0316 µM, first compound 3.16 µM
[18] = second compound 0.0316 µM, first compound 10 µM
[19] = second compound 0.1 µM, first compound 0.0316 µM
[20] = second compound 0.1 µM, first compound 0.1 µM
[21] = second compound 0.1 µM, first compound 0.316 µM
[22] = second compound 0.1 µM, first compound 1 µM
[23] = second compound 0.1 µM, first compound 3.16 µM
[24] = second compound 0.1 µM, first compound 10 µM
[25] = second compound 0.316 µM, first compound 0.0316 µM
[26] = second compound 0.316 µM, first compound 0.1 µM
[27] = second compound 0.316 µM, first compound 0.316 µM
[28] = second compound 0.316 µM, first compound 1 µM
[29] = second compound 0.316 µM, first compound 3.16 µM
[30] = second compound 0.316 µM, first compound 10 µM
[31] = second compound 1 µM, first compound 0.0316 µM
[32] = second compound 1 µM, first compound 0.1 µM
[33] = second compound 1 µM, first compound 0.316 µM
[34] = second compound 1 µM, first compound 1 µM
[35] = second compound 1 µM, first compound 3.16 µM
[36] = second compound 1 µM, first compound 10 µM
[37] = second compound 0.00316 µM, first compound 0.00316 µM
[38] = second compound 0.00316 µM, first compound 0.01 µM
[39] = second compound 0.01 µM, first compound 0.00316 µM
[40] = second compound 0.01 µM, first compound 0.01 µM
[41] = second compound 0.0316 µM, first compound 0.00316 µM
[42] = second compound 0.0316 µM, first compound 0.01 µM
[43] = second compound 0.1 µM, first compound 0.00316 µM
[44] = second compound 0.1 µM, first compound 0.01 µM
[45] = second compound 0.316 µM, first compound 0.00316 µM
[46] = second compound 0.316 µM, first compound 0.01 µM
[47] = second compound 1 µM, first compound 0.00316 µM
[48] = second compound 1 µM, first compound 0.01 µM

CC(C)NCC(C(=O)N1CCN(c2ncnc3c2C(C)CC3O)CC1)c1ccc(Cl)cc1 (stereo not given) + COc1c(OCCCN2CCOCC2)ccc2c3n(c(=NC(=O)c4cnc(N)nc4)nc12)CCN3
IC50 (second compound 0.00316 µM): 7260 nM
IC50 (second compound 0.01 µM): 4830 nM
IC50 (second compound 0.0316 µM): 1840 nM
IC50 (second compound 0.1 µM): < 31.6 nM
IC50 (second compound 0.316 µM): < 31.6 nM
IC50 (second compound 1 µM): < 31.6 nM
viability, T/C [1]: 96.1%
viability, T/C [2]: 93.7%
viability, T/C [3]: 83.5%
viability, T/C [4]: 74.6%
viability, T/C [5]: 59.3%
viability, T/C [6]: 46.3%
viability, T/C [7]: 81.8%
viability, T/C [8]: 81.4%
viability, T/C [9]: 69.2%
viability, T/C [10]: 62.6%
viability, T/C [11]: 54.7%
viability, T/C [12]: 43.4%
viability, T/C [13]: 61.6%
viability, T/C [14]: 59.1%
viability, T/C [15]: 55.8%
viability, T/C [16]: 56.3%
viability, T/C [17]: 45.6%
viability, T/C [18]: 33.9%
viability, T/C [19]: 48.5%
viability, T/C [20]: 48.7%
viability, T/C [21]: 45.6%
viability, T/C [22]: 39.3%
viability, T/C [23]: 37.9%
viability, T/C [24]: 28.9%
viability, T/C [25]: 32.9%
viability, T/C [26]: 34%
viability, T/C [27]: 31.2%
viability, T/C [28]: 30.1%
viability, T/C [29]: 25.5%
viability, T/C [30]: 18.7%
viability, T/C [31]: 23.8%
viability, T/C [32]: 23.7%
viability, T/C [33]: 24.9%
viability, T/C [34]: 23%
viability, T/C [35]: 24.8%
viability, T/C [36]: 18.8%

CC1(C)CCC(CN2CCN(c3ccc(C(=O)NS(=O)(=O)c4ccc(NCC5CCOCC5)c([N+](=O)[O-])c4)c(Oc4cnc5[nH]ccc5c4)c3)CC2)=C(c2ccc(Cl)cc2)C1 + COc1c(OCCCN2CCOCC2)ccc2c3n(c(=NC(=O)c4cnc(N)nc4)nc12)CCN3
IC50 (second compound 0.00316 µM): > 10000 nM
IC50 (second compound 0.01 µM): > 10000 nM
IC50 (second compound 0.0316 µM): > 10000 nM
IC50 (second compound 0.1 µM): < 31.6 nM
IC50 (second compound 0.316 µM): < 31.6 nM
IC50 (second compound 1 µM): < 31.6 nM
viability, T/C [1]: 100%
viability, T/C [2]: 96.4%
viability, T/C [3]: 96.8%
viability, T/C [4]: 104%
viability, T/C [5]: 102%
viability, T/C [6]: 104%
viability, T/C [7]: 82.1%
viability, T/C [8]: 80.1%
viability, T/C [9]: 85%
viability, T/C [10]: 91.1%
viability, T/C [11]: 85.2%
viability, T/C [12]: 83.9%
viability, T/C [13]: 65.9%
viability, T/C [14]: 66.4%
viability, T/C [15]: 65.2%
viability, T/C [16]: 65.7%
viability, T/C [17]: 67.4%
viability, T/C [18]: 66.5%
viability, T/C [19]: 46.2%
viability, T/C [20]: 45.6%
viability, T/C [21]: 48.1%
viability, T/C [22]: 47.7%
viability, T/C [23]: 48.9%
viability, T/C [24]: 44.9%
viability, T/C [25]: 35.6%
viability, T/C [26]: 34.8%
viability, T/C [27]: 36.1%
viability, T/C [28]: 35.3%
viability, T/C [29]: 35.8%
viability, T/C [30]: 33.6%
viability, T/C [31]: 25.7%
viability, T/C [32]: 26.2%
viability, T/C [33]: 24.5%
viability, T/C [34]: 23.9%
viability, T/C [35]: 25.1%
viability, T/C [36]: 22.2%

CCN1CCN(Cc2ccc(Nc3ncc(F)c(-c4cc(F)c5nc(C)n(C(C)C)c5c4)n3)nc2)CC1 + COc1c(OCCCN2CCOCC2)ccc2c3n(c(=NC(=O)c4cnc(N)nc4)nc12)CCN3
IC50 (second compound 0.00316 µM): 195 nM
IC50 (second compound 0.01 µM): 65.4 nM
IC50 (second compound 0.0316 µM): 8.45 nM
IC50 (second compound 0.1 µM): < 3.16 nM
IC50 (second compound 0.316 µM): < 3.16 nM
IC50 (second compound 1 µM): < 3.16 nM
viability, T/C [37]: 89%
viability, T/C [38]: 79.4%
viability, T/C [1]: 72.3%
viability, T/C [2]: 52.1%
viability, T/C [3]: 47.7%
viability, T/C [4]: 45.1%
viability, T/C [39]: 77.8%
viability, T/C [40]: 66.2%
viability, T/C [7]: 57.2%
viability, T/C [8]: 46.5%
viability, T/C [9]: 39.7%
viability, T/C [10]: 40.2%
viability, T/C [41]: 56%
viability, T/C [42]: 50.9%
viability, T/C [13]: 43.9%
viability, T/C [14]: 38.4%
viability, T/C [15]: 35.9%
viability, T/C [16]: 39.6%
viability, T/C [43]: 45.1%
viability, T/C [44]: 40%
viability, T/C [19]: 33.4%
viability, T/C [20]: 27.9%
viability, T/C [21]: 31%
viability, T/C [22]: 38.1%
viability, T/C [45]: 30%
viability, T/C [46]: 27.2%
viability, T/C [25]: 24.1%
viability, T/C [26]: 22.4%
viability, T/C [27]: 28%
viability, T/C [28]: 42.7%
viability, T/C [47]: 24.6%
viability, T/C [48]: 22.5%
viability, T/C [31]: 22.4%
viability, T/C [32]: 25.5%
viability, T/C [33]: 43.7%
viability, T/C [34]: 83.2%

C[C@@H](NC(=O)c1ncnc(N)c1Cl)c1ncc(C(=O)Nc2cc(C(F)(F)F)c(Cl)cn2)s1 + COc1c(OCCCN2CCOCC2)ccc2c3n(c(=NC(=O)c4cnc(N)nc4)nc12)CCN3
IC50 (second compound 0.00316 µM): > 10000 nM
IC50 (second compound 0.01 µM): > 10000 nM
IC50 (second compound 0.0316 µM): 1730 nM
IC50 (second compound 0.1 µM): 136 nM
IC50 (second compound 0.316 µM): < 31.6 nM
IC50 (second compound 1 µM): < 31.6 nM
viability, T/C [1]: 123%
viability, T/C [2]: 110%
viability, T/C [3]: 100%
viability, T/C [4]: 84.2%
viability, T/C [5]: 71%
viability, T/C [6]: 59.1%
viability, T/C [7]: 108%
viability, T/C [8]: 90.4%
viability, T/C [9]: 81.6%
viability, T/C [10]: 65.7%
viability, T/C [11]: 59.8%
viability, T/C [12]: 52.5%
viability, T/C [13]: 75.9%
viability, T/C [14]: 72.9%
viability, T/C [15]: 61.5%
viability, T/C [16]: 54.5%
viability, T/C [17]: 45.9%
viability, T/C [18]: 39.9%
viability, T/C [19]: 61%
viability, T/C [20]: 49.6%
viability, T/C [21]: 45.4%
viability, T/C [22]: 39.4%
viability, T/C [23]: 34.2%
viability, T/C [24]: 28.3%
viability, T/C [25]: 38.8%
viability, T/C [26]: 35.3%
viability, T/C [27]: 29.4%
viability, T/C [28]: 23.4%
viability, T/C [29]: 20.3%
viability, T/C [30]: 15.9%
viability, T/C [31]: 33.4%
viability, T/C [32]: 25.4%
viability, T/C [33]: 23.2%
viability, T/C [34]: 18.2%
viability, T/C [35]: 15.3%
viability, T/C [36]: 10.6%

Cn1ncnc1[C@H]1c2n[nH]c(=O)c3cc(F)cc(c23)N[C@@H]1c1ccc(F)cc1 + COc1c(OCCCN2CCOCC2)ccc2c3n(c(=NC(=O)c4cnc(N)nc4)nc12)CCN3
IC50 (second compound 0.00316 µM): > 100 nM
IC50 (second compound 0.01 µM): > 100 nM
IC50 (second compound 0.0316 µM): 38.4 nM
IC50 (second compound 0.1 µM): < 0.316 nM
IC50 (second compound 0.316 µM): < 0.316 nM
IC50 (second compound 1 µM): < 0.316 nM
viability, T/C (second compound 0.00316 µM, first compound 0.000316 µM): 94%
viability, T/C (second compound 0.00316 µM, first compound 0.001 µM): 89.6%
viability, T/C [37]: 91.4%
viability, T/C [38]: 78.5%
viability, T/C [1]: 78.5%
viability, T/C [2]: 72.9%
viability, T/C (second compound 0.01 µM, first compound 0.000316 µM): 76.4%
viability, T/C (second compound 0.01 µM, first compound 0.001 µM): 76.7%
viability, T/C [39]: 68.9%
viability, T/C [40]: 64.8%
viability, T/C [7]: 67.2%
viability, T/C [8]: 60.3%
viability, T/C (second compound 0.0316 µM, first compound 0.000316 µM): 57.8%
viability, T/C (second compound 0.0316 µM, first compound 0.001 µM): 59.2%
viability, T/C [41]: 53.8%
viability, T/C [42]: 53.5%
viability, T/C [13]: 51.7%
viability, T/C [14]: 46.1%
viability, T/C (second compound 0.1 µM, first compound 0.000316 µM): 46.4%
viability, T/C (second compound 0.1 µM, first compound 0.001 µM): 46.6%
viability, T/C [43]: 43%
viability, T/C [44]: 43.7%
viability, T/C [19]: 39.7%
viability, T/C [20]: 37.5%
viability, T/C (second compound 0.316 µM, first compound 0.000316 µM): 31.8%
viability, T/C (second compound 0.316 µM, first compound 0.001 µM): 32.3%
viability, T/C [45]: 32.4%
viability, T/C [46]: 29.6%
viability, T/C [25]: 30.1%
viability, T/C [26]: 25.7%
viability, T/C (second compound 1 µM, first compound 0.000316 µM): 24.4%
viability, T/C (second compound 1 µM, first compound 0.001 µM): 23.5%
viability, T/C [47]: 24.6%
viability, T/C [48]: 23.5%
viability, T/C [31]: 25.7%
viability, T/C [32]: 22.4%
